Where two headings read alike, the source gives them in different places.
How the values were obtained:
Type in all cases: cell-based
human neutrophils [1] = experiment: PMA-induced ROS production (L-012 chemiluminescence); details: Neutrophil, 200 nM PMA, N.A. = no activity at < 50 µM
Text: To evaluate if the crown ethers could also disrupt GPCR-independent functional activity, we evaluated the effects of these compounds on phorbol 12-myristate 13-acetate (PMA)-stimulated reactive oxygen species (ROS) production. […] A representative concentration-dependent response for the inhibition of PMA-stimulated neutrophil ROS production by compound 15 is shown in Figure 2B. Since ROS production in neutrophils also requires increased [Ca^2+]i, the results again confirm that the impact of these compounds on Ca^2+ flux kinetics can alter neutrophil function.
ROS production was determined by monitoring L-012-enhanced chemiluminescence, which represents a sensitive and reliable method for detecting superoxide anion (O2^−.) production. Human neutrophils were resuspended at 2 × 10^5 cells/mL in HBSS^+ supplemented with 40 µM L-012. Cells (100 µL) were aliquoted into wells of 96-well flat-bottomed microtiter plates containing test compounds at different concentrations (final DMSO concentration of 1%). Cells were preincubated for 10 min, and 200 nM PMA was added to each well to stimulate ROS production. Luminescence was monitored for 120 min (2-min intervals) at 37 °C using a Fluroscan Ascent FL microtiter plate reader (Thermo Electron, Waltham, MA, USA). The curve of light intensity (in relative luminescence units) was plotted against time, and the area under the curve was calculated as total luminescence. The compound concentration that inhibited ROS production by 50% of the PMA-induced response (positive control) was determined by graphing the percentage inhibition of ROS production versus the logarithm of concentration of test sample (IC50). Each curve was determined using five to seven concentrations.

human neutrophils [2] = experiment: Ca2+ mobilization assay, direct effect of compounds on [Ca2+]i; details: Neutrophil; for Emax: % of the response induced by 5 nM fMLF, read-out: Efficacy (converted)
Text: We screened 24 aza- and diaza-crown ethers with adamantyl, adamantylalkyl, aminomethylbenzoyl, and ε-aminocaproyl substituents for their Ca^2+ ionophore effects in human neutrophils. To monitor cytoplasmic Ca^2+ levels, we used the fluorescent Ca^2+ indicator Fluo-4, which is a dynamic single-wavelength fluorescent Ca^2+ indicator. Increases in fluorescence intensity (λex = 485 nm, λem = 538 nm) reflect the rise in cytoplasmic Ca^2+ concentrations ([Ca^2+]i; see Materials and Methods).
(§1) Changes in neutrophil intracellular Ca^2+ concentrations ([Ca^2+]i) were measured with a FlexStation 3 scanning fluorometer (Molecular Devices, Sunnyvale, CA, USA). Briefly, human neutrophils were suspended in HBSS^−, loaded with Fluo-4AM at a final concentration of 1.25 μg/mL, and incubated for 30 min in the dark at 37 °C. After dye loading, the cells were washed with HBSS^−, resuspended in HBSS^+, separated into aliquots, and loaded into the wells of flat-bottom, half-area well black microtiter plates (2 × 10^5 cells/well). To assess the direct effects of test compounds on Ca^2+ flux, the compounds were added to the wells (final concentration of DMSO was 1%), and changes in fluorescence were monitored (λex = 485 nm, λem = 538 nm) every 5 s for 240 s at room temperature after addition of the test compound. To evaluate inhibitory effects of the compounds on FPR1/FPR2-dependent Ca^2+ flux, the compounds were added to the wells (final concentration of DMSO was 1%) with cells (human neutrophils or FPR1/FPR2 HL60 cells). The samples were preincubated for 10 min, followed by addition of 5 nM fMLF (for human neutrophils or FPR1-HL60 cells) or 5 nM WKYMVM (for FPR2-HL60 cells). The maximum change in fluorescence, expressed in arbitrary units over baseline, was used to determine the agonist response. Responses were normalized to the response induced by 5 nM fMLF or 5 nM WKYMVM, which were assigned as 100%. Curve fitting (at least five or six points) and calculation of median effective concentration values (EC50 or IC50) were performed by nonlinear regression analysis of the dose–response curves generated using Prism 7 (GraphPad Software, Inc., San Diego, CA, USA). Efficacy was determined by comparing individual responses activated by the test compounds to that induced by a positive control (5 nM fMLF), which was assigned a value of 100%.

FPR1 = biological target: T1, FPR1 (Homo sapiens, UniProt P21462); experiment: Inhibition of fMLF-induced [Ca2+]i flux in FPR1-HL60 cells; details: 10 min preincubation, 5 nM fMLF; N.A. = no activity at < 50 µM; read-out: FPR1/FPR2 Agonist-Induced Δ[Ca^2+]i FPR1-HL60 IC50
T1 construct: expressed in transfected cells
T1 sequence (P21462 1-350): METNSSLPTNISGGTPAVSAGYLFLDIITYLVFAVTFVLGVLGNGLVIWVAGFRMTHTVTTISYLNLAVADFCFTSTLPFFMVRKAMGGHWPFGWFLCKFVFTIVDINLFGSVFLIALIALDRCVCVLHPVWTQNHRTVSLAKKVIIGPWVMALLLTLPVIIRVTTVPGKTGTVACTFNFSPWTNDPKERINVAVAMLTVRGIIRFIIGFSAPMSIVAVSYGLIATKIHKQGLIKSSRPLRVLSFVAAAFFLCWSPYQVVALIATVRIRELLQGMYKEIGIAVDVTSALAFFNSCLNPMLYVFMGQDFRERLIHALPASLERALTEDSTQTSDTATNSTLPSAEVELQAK
Procedure: (§2) Since these compounds elevated neutrophil [Ca^2+]i, and cytosolic Ca^2+ flux is a key component of neutrophil activation, we evaluated if they could alter neutrophil activation by FPR1 or FPR2 agonists. Neutrophils and FPR-transfected HL60 cells were preincubated for 10 min with crown ether compounds, and [Ca^2+]i flux was stimulated with either an FPR1 agonist (fMLF for human neutrophils and FPR1-HL60 cells) or an FPR2 agonist (WKYMVM for FPR2-HL60 cells).
Human promyelocytic leukemia HL60 cells stably transfected with FPR1 (FPR1-HL60 cells) or FPR2 (FPR2-HL60 cells) (kind gifts from Dr. Marie-Josephe Rabiet, INSERM, Grenoble, France) were cultured in RPMI 1640 medium supplemented with 10% heat-inactivated fetal calf serum, 10 mM HEPES, 100 μg/mL streptomycin, 100 U/mL penicillin, and G418 (1 mg/mL). Although stable cell lines are cultured under G418 selection pressure, G418 may affect some assays, so it was removed in the last round of culture before assays were performed.
as §1

human neutrophils [3] = experiment: Inhibition of fMLF-induced [Ca2+]i flux in human neutrophils; details: Neutrophil, 10 min preincubation, 5 nM fMLF, N.A. = no activity at < 50 µM, read-out: FPR1/FPR2 Agonist-Induced Δ[Ca^2+]i Neutrophils IC50
Procedure: as §2, §1

[4] = Homo sapiens, elevation of [Ca2+]i, Fluo-4, N.A. = no activity was found at concentration < 50 µM, read-out: EC50, effect on [Ca^2+]i flux in human neutrophils
[5] = reciprocal of EC50 in human neutrophils, inactive compounds assigned zero, read-out: 1/[EC50] (converted)

Row | Structure (SMILES) | IC50 (human neutrophils [1]) [µM] | Emax (human neutrophils [2]; Homo sapiens) [%] | EC50 (human neutrophils [2]; [4]) [µM] | EC50 (human neutrophils [2]; [5]) [µM] | IC50 (FPR1) [µM] | IC50 (human neutrophils [3]) [µM]
1 | O=C(CC12CC3CC(CC(C3)C1)C2)N1CCOCCOCCN(C(=O)CC23CC4CC(CC(C4)C2)C3)CCOCC1 [Compound 15, N,N’-bis[2-(1-adamantyl)acetyl]-4,10-diaza-15-crown-5] | 4.1 ± 0.1 | 110 | 4.7 ± 1.5 | 4.7 | 4.8 ± 0.9 | 4.1 ± 0.6
2 | O=C(N1CCOCCOCCN(C(=O)C23CC4CC(CC(C4)C2)C3)CCOCC1)C12CC3CC(CC(C3)C1)C2 [Compound 13, N,N’-bis[1-oxo-1-(1-adamantyl)methyl]-4,10-diaza-15-crown-5] | 25.9 ± 2.7 | 25 to 50 | 6.9 ± 2.1 | 6.9 | 16.5 ± 3.2 | 7.4 ± 1.3
3 | O=C(N1CCOCCOCCOCCN(C(=O)C23CC4CC(CC(C4)C2)C3)CCOCC1)C12CC3CC(CC(C3)C1)C2 [Compound 14, N,N’-bis[1-oxo-1-(1-adamantyl)methyl]-4,10-diaza-18-crown-6] | 21.9 ± 2.2 | 25 to 50 | 9.5 ± 2.7 | 9.5 | 11.6 ± 2.1 | 3.5 ± 0.4
4 | O=C(CC12CC3CC(CC(C3)C1)C2)N1CCOCCOCCN(C(=O)CC23CC4CC(CC(C4)C2)C3)CCOCCOCC1 [Compound 17, N,N’-bis[2-(1-adamantyl)acetyl]-4,13-diaza-18-crown-6] | 8.2 ± 0.1 |  | 15.9 ± 2.5 | 15.9 | 3.7 ± 0.7 | 1.5 ± 0.4

— article PMC8069214, “Synthesis, Biological Evaluation, and Molecular Modeling of Aza-Crown Ethers” (Molecules, 2021)
